Here are results for one cell line from the supplement of paper PMC10307832.

Assay in all cases: relative viability (nuclei count vs DMSO), 5 days (fraction); higher = more cells survive
Compound in the test “MK-8033 + Decitabine”: Cn1cc(-c2cnc3ccc4ccc(CS(=O)(=O)NCc5ccccn5)cc4c(=O)c3c2)cn1 [MK-8033] + Nc1ncn([C@H]2C[C@H](O)[C@@H](CO)O2)c(=O)n1 [Decitabine] (partner 2 µM)
The gist of the method: (§1)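 Relative viability divides the nuclei count in treated wells by that in vehicle wells. Lung cancer cell lines were seeded in 1536-well plates, dosed by pin tool the next day, and fixed and stained after 5 days in one step with final 0.05% Triton X-100, 1% formaldehyde and 1 ug/ml Hoechst. Dosing was a single drug or a fixed anchor-drug dose plus five library-drug doses (not always all listed) in √10 steps, and values are medians of duplicate plates imaged at 4×.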

Compound in the test “RU-SKI 43 + Pictilisib”: CC[C@@H](C)CNCC(=O)N1CCC2=C([C@@H]1COC3=CC=CC(=C3)C)C=CS2 [RU-SKI 43] + CS(=O)(=O)N1CCN(Cc2cc3nc(-c4cccc5[nH]ncc45)nc(N4CCOCC4)c3s2)CC1 [Pictilisib] (partner 1 µM)
The gist of the method: as §1

Compound in the test “RU-SKI 43 + Decitabine”: CC[C@@H](C)CNCC(=O)N1CCC2=C([C@@H]1COC3=CC=CC(=C3)C)C=CS2 [RU-SKI 43] + Nc1ncn([C@H]2C[C@H](O)[C@@H](CO)O2)c(=O)n1 [Decitabine] (partner 2 µM)
In a few lines:
as §1

Compound in the test “MK-8033 + Luminespib”: Cn1cc(-c2cnc3ccc4ccc(CS(=O)(=O)NCc5ccccn5)cc4c(=O)c3c2)cn1 [MK-8033] + CCNC(=O)c1noc(-c2cc(C(C)C)c(O)cc2O)c1-c1ccc(CN2CCOCC2)cc1 [Luminespib] (partner 0.01 µM)
In a few lines: as §1

Regarding UMC-11, the relative viability with MK-8033 + Decitabine (first compound 0.02 µM) turned out to be 0.593; with MK-8033 + Decitabine (first compound 0.06325 µM), 0.424; in the test with MK-8033 + Decitabine (first compound 0.2 µM), 0.59; in the test with MK-8033 + Decitabine (first compound 0.6325 µM), 0.714; with MK-8033 + Decitabine (first compound 2 µM) it was 0.612; in the test with RU-SKI 43 + Pictilisib (first compound 0.1 µM) it was 0.958. The relative viability amounted to 1.11 in the test with RU-SKI 43 + Pictilisib (first compound 0.3162 µM); 0.876 with RU-SKI 43 + Pictilisib (first compound 1 µM); 0.789 with RU-SKI 43 + Pictilisib (first compound 3.162 µM); 0.695 with RU-SKI 43 + Pictilisib (first compound 10 µM); 0.668 with RU-SKI 43 + Decitabine (first compound 0.1 µM); 0.614 in the test with RU-SKI 43 + Decitabine (first compound 0.3162 µM). The relative viability amounted to 0.675 in the test with RU-SKI 43 + Decitabine (first compound 1 µM); 0.619 with RU-SKI 43 + Decitabine (first compound 3.162 µM); 0.64 with RU-SKI 43 + Decitabine (first compound 10 µM); 1.03 with MK-8033 + Luminespib (first compound 0.02 µM); 0.935 with MK-8033 + Luminespib (first compound 0.06325 µM); 1.03 with MK-8033 + Luminespib (first compound 0.2 µM). The relative viability with MK-8033 + Luminespib (first compound 2 µM) was 0.988.
